Experimental data reported in patent US10662204B2 (PFIZER INC., priority 2018, dated 2020).

Key:
[1] = target: T1, KRAS G12C (Homo sapiens, UniProt P01116, G12C); assay: Cell Activity Assay: accumulation of GDP-bound KRAS G12C in MIAPaCa-2 cells (Raf-1 RBD capture, MSD readout); format: cell-based; parameters: endogenous in cells; host or cells: MIAPaCa-2; settings: 6 hours, assay limit is 30.00
Summary of the method: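 MIAPaCa-2 cells exposed 6 h at 37 °C to 3-fold compound dilutions (0.3% DMSO final), then lysed. Active GTP-KRAS captured on Raf-1 RBD-coated plates, detected with anti-pan-Ras and SULFO-TAG secondary by MSD electrochemiluminescence. Signal normalized to DMSO and maximum inhibition; IC50 from 4-parameter fit.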

[2] = target: T1, KRAS G12C; assay: Cell Activity Assay: IC50 in H358 cells; format: cell-based; parameters: endogenous in cells
Method: Compounds presented in the present invention lead to the accumulation of the GDP bound Ras upon treatment of human cancer cell line.
The accumulation of the GDP-bound KRAS G12C in cellular environment was measured based on the principle that KRAS G12C only binds to its downstream kinase; Raf-1 (MAP Kinase Kinase Kinase), when in its active-GTP bound state. In this state, Ras binded to a domain of Raf-1 kinase referred to as the Ras Binding Domain (RBD).
Raf-1 RBD (LJIC-1988A1) was diluted to 100 ng/well in PBS and 5 μl/well was spot coated onto MSD high bind SECTOR plates (L15XB). Plates were incubated at room temperature for 1 hour on an orbital shaker. Plates were washed with PBS/0.05% Tween-20 and 50 μl/well of thawed lysate samples were added, followed by 50 μl of 1% MSD Blocker A in PBS/0.05 Tween-20 (R93BA). Plates were incubated for 1 hour on an orbital shaker and washed with PBS/0.05% Tween-20. 25 μl/well of Anti-pan-Ras Antibody (Cell Biolabs 244003) diluted 1:3000 was added in 1% MSD Blocker A solution and plates were incubated for 1 hour on an orbital shaker and washed with PBS/0.05% Tween-20. SULFO-TAG goat anti-mouse secondary antibody (MSD R32AC) was diluted 1:500 in MSD Blocker A solution and added at 25 μL/well. Plates were incubated for 1 hour on an orbital shaker and washed with PBS/0.05% Tween-20. 150 μl/well of Read Buffer T (MSD R92TC) diluted 1:3 in H2O was added and plates were read on a Meso Scale Discovery Sector Imager S600.
KRAS signal was normalized to maximum inhibition and DMSO control values, and IC50 values were generated using a 4 parameter fit of the dose response curve. The decrease in IC50 reflects that the exemplary compound lead to a higher level of accumulation of GDP-bound KRAS G12C than another exemplary compounds at specific timepoint of treatment of cancer cell line.

[3] = target: T2, GDP-loaded KRAS (1-169) G12C, C51S, C80L, C118S (Homo sapiens, UniProt P01116, C118S/C51S/C80L/G12C); assay: Mass Spectrometry Reactivity Assay (MSRA): covalent adduct of compound and KRAS G12C, Percent Modification; format: binding
T2 construct: GDP-loaded KRAS (1-169) G12C, C51S, C80L, C118S
Summary of the method: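 GDP-loaded KRAS(1-169) G12C/C51S/C80L/C118S at 5 μM in 25 mM Hepes pH 7.5, 200 mM NaCl, 5% glycerol incubated at RT with compound (typically 5 or 10 μM final, 1% DMSO). Quenched in formic acid at 1-60 min; intact-protein LC-TOF MS gives % modification = modified/(modified+unmodified).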

SMILES	IC50 [1] [µM]	IC50 [2] [µM]	MSRA (% modification) 10 μM 0.25 hr ([3]; 10 μM compound, 0.25 hr) [%]	MSRA (% modification) 5.0 μM 0.25 hr ([3]; 5.0 μM compound, 0.25 hr) [%]	MSRA (% modification) 10 μM 0.50 hr ([3]; 10 μM compound, 0.50 hr) [%]	MSRA (% modification) 5.0 μM 0.017 hr ([3]; 5.0 μM compound) [%]
C=CC(=O)N1CCN(c2nc(OC[C@@H]3CCCN3C)nc3c(Oc4c(Cl)c(F)cc5[nH]ncc45)nc(Cl)cc23)CC1 [Example 01G, 1-[4-(6-chloro-8-[(5-chloro-6-fluoro-1H-indazol-4-yl)oxy]-2-{[(2S)-1-methylpyrrolidin-2-yl]methoxy}pyrido[3,4-d]pyrimidin-4-yl)piperazin-1-yl]prop-2-en-1-one]	0.04	0.06	82			
C=CC(=O)N1CCN(c2nc(OC[C@@H]3CCCN3C)nc3c(Oc4c(Cl)c(F)cc5[nH]ncc45)nccc23)CC1 [Example 01H, 1-[4-(8-[(5-chloro-6-fluoro-1H-indazol-4-yl)oxy]-2-{[(2S)-1-methylpyrrolidin-2-yl]methoxy}pyrido[3,4-d]pyrimidin-4-yl)piperazin-1-yl]prop-2-en-1-one]	0.117	0.191	81	66		
C=CC(=O)N1CCN(c2nc(N3CC(N(C)C)C3)nc3c(Oc4c(C)ccc5[nH]ncc45)nccc23)CC1 [Example 02B, 1-(4-{2-[3-(dimethylamino)azetidin-1-yl]-8-[(5-methyl-1H-indazol-4-yl)oxy]pyrido[3,4-d]pyrimidin-4-yl}piperazin-1-yl)prop-2-en-1-one]	7.84	8.2			30	
[2H]C([2H])([2H])N1C[C@@H](OC)[C@H](Oc2nc(N3CCN(C(=O)C=C)CC3)c3cc(Cl)nc(Oc4c(Cl)c(F)cc5[nH]ncc45)c3n2)C1 [Example 41G, 1-[4-(6-chloro-8-[(5-chloro-6-fluoro-1H-indazol-4-yl)oxy]-2-{[(3R,4R)-4-methoxy-1-(^2H3)methylpyrrolidin-3-yl]oxy}pyrido[3,4-d]pyrimidin-4-yl)piperazin-1-yl]prop-2-en-1-one]	0.007					83
C=CC(=O)N1CCN(c2nc(Oc3cccc4c3CN(C)C4)nc3c(Oc4c(Cl)c(F)cc5[nH]ncc45)nccc23)CC1 [Example 41I, 1-(4-{8-[(5-chloro-6-fluoro-1H-indazol-4-yl)oxy]-2-[(2-methyl-2,3-dihydro-1H-isoindol-4-yl)oxy]pyrido [3,4-d]pyrimidin-4-yl}piperazin-1-yl)prop-2-en-1-one]	0.021					70
C=CC(=O)N1CCN(c2nc(Oc3cccc4c3CN(C)CC4)nc3c(Oc4c(Cl)c(F)cc5[nH]ncc45)nccc23)CC1 [Example 42I, 1-(4-{8-[(5-chloro-6-fluoro-1H-indazol-4-yl)oxy]-2-[(2-methyl-1,2,3,4-tetrahydro-isoquinolin-8-yl)oxy]pyrido [3,4-d]pyrimidin-4-yl}piperazin-1-yl)prop-2-en-1-one]	0.01					73
C#CCN1C[C@@H](OC)[C@H](Oc2nc(N3CCN(C(=O)C=C)CC3)c3ccnc(Oc4c(Cl)c(F)cc5[nH]ncc45)c3n2)C1 [Example 43I, 1-[4-(8-[(5-chloro-6-fluoro-1H-indazol-4-yl)oxy]-2-{[(3R,4R)-4-methoxy-1-(prop-2-yn-1-yl)pyrrolidin-3-yl]oxy}pyrido [3,4-d]pyrimidin-4-yl)piperazin-1-yl]prop-2-en-1-one]	0.019					54
C#CCCN1C[C@@H](OC)[C@H](Oc2nc(N3CCN(C(=O)C=C)CC3)c3ccnc(Oc4c(Cl)c(F)cc5[nH]ncc45)c3n2)C1 [Example 44I, 1-[4-(2-{[(3R,4R)-1-(but-3-yn-1-yl)-4-methoxy-pyrrolidin-3-yl]oxy}-8-[(5-chloro-6-fluoro-1H-indazol-4-yl)oxy]pyrido [3,4-d]pyrimidin-4-yl)piperazin-1-yl]prop-2-en-1-one]	0.032					56
C=CC(=O)N1CCN(c2nc(O[C@@H]3CN(CCO)C[C@H]3OC)nc3c(Oc4c(Cl)c(F)cc5[nH]ncc45)nccc23)CC1 [Example 46I, 1-[4-(8-[(5-chloro-6-fluoro-1H-indazol-4-yl)oxy]-2-{[(3R,4R)-1-(2-hydroxy-ethyl)-4-methoxy-pyrrolidin-3-yl]oxy}pyrido [3,4-d]pyrimidin-4-yl)piperazin-1-yl]prop-2-en-1-one]	0.285					70
C=CC(=O)N1CCN(c2nc(Oc3cccc4c3CCN(C)C4)nc3c(Oc4c(Cl)ccc5[nH]ncc45)nccc23)CC1 [Example 48I, 1-(4-{8-[(5-chloro-1H-indazol-4-yl)oxy]-2-[(2-methyl-1,2,3,4-tetrahydro-isoquinolin-5-yl)oxy]pyrido [3,4-d]pyrimidin-4-yl}piperazin-1-yl)prop-2-en-1-one]	0.006					67
C=CC(=O)N1CCN(c2nc(O[C@@H]3CN(C)C[C@H]3OC)nc3c(Oc4c(Cl)ccc5[nH]ncc45)nccc23)CC1 [Example 49I]	0.17					34

The next lines start with the values.

IC50 [1] [µM]	IC50 [2] [µM]	MSRA (% modification) 10 μM 0.25 hr ([3]; 10 μM compound, 0.25 hr) [%]	MSRA (% modification) 5.0 μM 0.25 hr ([3]; 5.0 μM compound, 0.25 hr) [%]	MSRA (% modification) 10 μM 0.50 hr ([3]; 10 μM compound, 0.50 hr) [%]	MSRA (% modification) 5.0 μM 0.017 hr ([3]; 5.0 μM compound) [%]	SMILES
0.008					70	C=CC(=O)N1CCN(c2nc(Oc3cccc4c3CCN(C)C4)nc3c(Oc4c(Cl)c(Cl)cc5[nH]ncc45)nccc23)CC1 [Example 50I, 1-(4-{8-[(5,6-dichloro-1H-indazol-4-yl)oxy]-2-[(2-methyl-1,2,3,4-tetrahydro-isoquinolin-5-yl)oxy]pyrido [3,4-d]pyrimidin-4-yl}piperazin-1-yl)prop-2-en-1-one]
0.023					81	C=CC(=O)N1CCN(c2nc(O[C@@H]3CN(C(C)(C)C)C[C@H]3OC)nc3c(Oc4c(Cl)c(F)cc5[nH]ncc45)nccc23)CC1 [Example 52I, 1-[4-(2-{[(3R,4R)-1-tert-butyl-4-methoxy-pyrrolidin-3-yl]oxy}-8-[(5-chloro-6-fluoro-1H-indazol-4-yl)oxy]pyrido [3,4-d]pyrimidin-4-yl)piperazin-1-yl]prop-2-en-1-one]
0.019					78	C=CC(=O)N1CCN(c2nc(Oc3ccc(F)c4c3CN(C)CC4)nc3c(Oc4c(Cl)c(F)cc5[nH]ncc45)nccc23)CC1 [Example 54I, 1-(4-{8-[(5-chloro-6-fluoro-1H-indazol-4-yl)oxy]-2-[(5-fluoro-2-methyl-1,2,3,4-tetrahydro-isoquinolin-8-yl)oxy]pyrido [3,4-d]pyrimidin-4-yl}piperazin-1-yl)prop-2-en-1-one]
0.028					60	C=CC(=O)N1CCN(c2nc(Oc3cccc4c3CCN(C3CC3)C4)nc3c(Oc4c(Cl)c(F)cc5[nH]ncc45)nccc23)CC1 [Example 55I, 1-(4-{8-[(5-chloro-6-fluoro-1H-indazol-4-yl)oxy]-2-[(2-cyclo-propyl-1,2,3,4-tetrahydro-isoquinolin-5-yl)oxy]pyrido [3,4-d]pyrimidin-4-yl}piperazin-1-yl)prop-2-en-1-one]
0.04					81	[2H]C([2H])([2H])N1C[C@@H](OC)[C@H](Oc2nc(N3CCN(C(=O)C=C)CC3)c3ccnc(Oc4c(Cl)c(F)cc5[nH]ncc45)c3n2)C1 [Example 56I, 1-[4-(8-[(5-chloro-6-fluoro-1H-indazol-4-yl)oxy]-2-{[(3R,4R)-4-methoxy-1-(^2H3)methyl-pyrrolidin-3-yl]oxy}pyrido [3,4-d]pyrimidin-4-yl)piperazin-1-yl]prop-2-en-1-one]
0.024					22	C=CC(=O)N1CCN(c2nc(O[C@@H]3CN(C)C[C@H]3C(F)(F)F)nc3c(Oc4c(Cl)c(F)cc5[nH]ncc45)nccc23)CC1 [Example 57I, 1-[4-(8-[(5-chloro-6-fluoro-1H-indazol-4-yl)oxy]-2-{[(3S,4R)-1-methyl-4-(trifluoro-methyl)pyrrolidin-3-yl]oxy}pyrido [3,4-d]pyrimidin-4-yl)piperazin-1-yl]prop-2-en-1-one]
